According to US10647675B2 (priority 2015, dated 2020):
In brackets after ≈: the same amount, converted by molar mass.

Assays:
[1] = system: Trichophyton rubrum KD-1130; assay: Antifungal activity evaluation test: minimum inhibitory concentration (MIC), broth dilution by reference to CLSI M38-A2; format: cell-based; settings: KD1130, read-out: MIC (T. rubrum)
How it was run: (§1)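 MIC read visually as lowest concentration inhibiting growth by at least 80% relative to control after 4 days at 35° C. Trichophyton strains inoculated at 2×10^3 cells/mL final in MOPS-buffered RPMI 1640 (pH 7.0); compounds as 2-fold DMSO series, CLSI M38-A2 basis.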

[2] = system: Trichophyton mentagrophytes SM-110; assay: as above; format: cell-based; settings: SM110, read-out: MIC (T. menta.)
How it was run: as §1

Row | MIC [1] [mg/L] | MIC [2] [mg/L] | SMILES
1 | ≤ 0.1 | ≤ 0.1 | C#CCCc1ccc(Oc2ncccc2-c2cccnc2OC)cc1 [I-407, 2-[4-(but-3-yn-1-yl)phenoxy]-2′-methoxy-3,3′-bipyridine]
2 | 0.2 to 0.78 (≈ 0.468 to 1.82 µM) | 0.2 to 0.78 (≈ 0.468 to 1.82 µM) | COc1ccccc1-c1cccnc1Oc1ccc(C(F)(F)CN2CCOCC2)nc1 [I-148, 4-[2,2-difluoro-2-(5-{[3-(2-methoxyphenyl)pyridin-2-yl]oxy}pyridin-2-yl)-ethyl]morpholine]
3 | 1.56 to 6.25 (≈ 4.18 to 16.7 µM) | 1.56 to 6.25 (≈ 4.18 to 16.7 µM) | COCC(F)(F)c1ccc(Oc2ncccc2-c2cnccc2OC)cn1 [I-349, 2-{[6-(1,1-difluoro-2-methoxyethyl)pyridin-3-yl]oxy}-4′-methoxy-3,3′-bipyridine]
4 | ≤ 0.1 | ≤ 0.1 | FC(F)(F)c1ccc(Oc2ncccc2-c2ccnc3cccnc23)cc1 [I-226, 4-{2-[4-(trifluoromethyl)phenoxy]pyridin-3-yl}-1,5-naphthyridine]
5 | ≤ 0.1 | ≤ 0.1 | COc1ccccc1-c1cccnc1Oc1ccc(OC(F)F)cc1 [I-445]
6 | ≤ 0.1 | ≤ 0.1 | COc1ccncc1-c1cccnc1Oc1ccc(C(C)C)cc1 [I-255, 2-(4-isopropylphenoxy)-4′-methoxy-3,3′-bipyridine]
7 | ≤ 0.1 | ≤ 0.1 | COc1ccc(F)cc1-c1cncnc1Oc1ccc(C(C)(F)F)nc1 [I-360, 4-{[6-(1,1-difluoroethyl)pyridin-3-yl]oxy}-5-(5-fluoro-2-methoxyphenyl)pyrimidine]
8 | 0.2 to 0.78 (≈ 0.604 to 2.35 µM) | 0.2 to 0.78 (≈ 0.604 to 2.35 µM) | Cc1noc(C)c1-c1cccnc1Oc1ccc(C(C)(F)F)nc1 [I-102]
9 | ≤ 0.1 | ≤ 0.1 | COCCN(C)c1ncc(Oc2ncccc2-c2ccc(F)cc2OC)cn1 [I-188, 5-{[3-(4-fluoro-2-methoxyphenyl)pyridin-2-yl]oxy}-N-(2-methoxyethyl)-N-methylpyrimidin-2-amine]
10 | 0.2 to 0.78 (≈ 0.651 to 2.54 µM) | 0.2 to 0.78 (≈ 0.651 to 2.54 µM) | CCc1ccc(Oc2ncccc2-c2cccnc2OC)cn1 [I-126, 2-[(6-ethylpyridin-3-yl)oxy]-2′-methoxy-3,3′-bipyridine]
11 | ≤ 0.1 | ≤ 0.1 | COc1ncccc1-c1cccnc1Oc1ccc(C(F)(F)F)nc1 [I-26, 2-methoxy-2′-{[6-(trifluoromethyl)pyridin-3-yl]oxy}-3,3′-bipyridine]
12 | 0.2 to 0.78 (≈ 0.466 to 1.82 µM) | 0.2 to 0.78 (≈ 0.466 to 1.82 µM) | COC(=O)N(C)CC(F)(F)c1ccc(Oc2ncccc2-c2ccccc2OC)cn1 [I-152, methyl [2,2-difluoro-2-(5-{[3-(2-methoxyphenyl)pyridin-2-yl]oxy}pyridin-2-yl)ethyl](methyl)carbamate]
13 | ≤ 0.1 | 0.2 to 0.78 (≈ 0.503 to 1.96 µM) | COc1ccccc1-c1cccnc1Oc1cnc(C(F)(F)C(F)(F)F)nc1 [I-181, 5-{[3-(2-methoxyphenyl)pyridin-2-yl]oxy}-2-(pentafluoroethyl)pyrimidine]
14 | 0.2 to 0.78 (≈ 0.492 to 1.92 µM) | 1.56 to 6.25 (≈ 3.84 to 15.4 µM) | COc1ncccc1-c1cccnc1Oc1cnc(I)nc1 [I-353]
15 | 0.2 to 0.78 (≈ 0.544 to 2.12 µM) | ≤ 0.1 | FC(F)(F)c1ccc(Oc2ncccc2-c2cccc3ncccc23)cn1 [I-36, 5-(2-{[6-(trifluoromethyl)pyridin-3-yl]oxy}pyridin-3-yl)quinoline]
16 | ≤ 0.1 | ≤ 0.1 | FC(F)(F)c1ccc(Oc2ncccc2-c2cccc3c(Cl)cnn23)cn1 [I-51, 3-chloro-7-(2-{[6-(trifluoromethyl)pyridin-3-yl]oxy}pyridin-3-yl)-pyrazolo[1,5-a]pyridine]
17 | ≤ 0.1 | ≤ 0.1 | COc1cc(F)ccc1-c1cccnc1Oc1ccc(C(F)F)nc1 [I-73, 2-{[6-(difluoromethyl)pyridin-3-yl]oxy}-3-(4-fluoro-2-methoxyphenyl)pyridine]
18 | ≤ 0.1 | 0.2 to 0.78 (≈ 0.548 to 2.14 µM) | COc1ncc(F)cc1-c1cccnc1Oc1ccc(C(F)(F)F)nc1 [I-32, 5-fluoro-2-methoxy-2′-{[6-(trifluoromethyl)pyridin-3-yl]oxy}-3,3′-bipyridine]
19 | ≤ 0.1 | ≤ 0.1 | COc1ncccc1-c1nccnc1Oc1ccc(OCc2ccccc2)cc1 [I-318, 2-[4-(benzyloxy)phenoxy]-3-(2-methoxypyridin-3-yl)pyrazine]
